Assay [1] deals with erythroid differentiation of BM cells. As to the kind of experiment: Erythroid maturation stage by flow cytometry (TFRC and GYPA). It is filed as cell-based, human. To be noted: for cells in TFRC/GYPA gate (gate not named): Fig 5A. On the procedure:
Flow cytometry was performed on a FC500 flow cytometer ([…]). Fetal hemoglobin protein was assayed using the Fetal Hemoglobin Test Kit (Life Technologies) according to manufacturer’s protocol. Samples were stained with FITC-conjugated mouse IgG1 anti-human HbF antibody (clone HbF-1, Life Technologies). Each sample was also stained with a FITC-conjugated mouse IgG1 isotype control antibody (clone X40, BD Biosciences) and used as a negative control. FETALtrol cells were used as positive controls (Trillium Diagnostics). TFRC and GYPA were detected on fresh cells by staining with 20 μL of PE-conjugated anti-human TFRC (clone M-A712, catalog 555537, BD Biosciences) and 0.5 μL of FITC- or APC-conjugated anti-human GYPA (clone GA-R2 (HIR2), catalog 559943 or 551336, BD Biosciences) in 200 μL PBS with 0.1% BSA for 40 min on ice. Forward and side scatter, or staining with 7AAD (catalog 559925, BD Biosciences), was used to identify viable cells.
To investigate the effects of HDAC1/2 inhibition on erythroid maturation, we followed differentiation by flow cytometry using TFRC and GYPA [38]. BM cells were cultured in CS1 expansion media for 7 days, yielding a pool of TFRC^negGYPA^neg cells composed of primitive and more differentiated hematopoietic progenitors of multiple lineages (Fig 4, ‘day 0’). These cells were then shifted to CS1 differentiation media containing either 1 μM of ACY-957 or vehicle control. […] The majority of vehicle control cells continued to differentiate over the next 3 days, becoming TFRC^posGYPA^pos by day 8. […] TFRC^posGYPA^mid cells are equivalent to proerythroblasts, while TFRC^posGYPA^pos cells include the more differentiated basophilic and polychromatic erythroblasts. Therefore, HDAC1/2 inhibition using 1 μM of ACY-957 was able to inhibit differentiation of proerythroblasts to basophilic erythroblasts in the liquid culture systems utilized in this study.
For orientation: In flow cytometry, cells or beads pass a laser one at a time.

Assay [2] concerns GATA2 binding. As to the kind of experiment: GATA2 ChIP-Seq in erythroid progenitors. The class given is cell-based, human. To be noted: 1 μM. On the procedure: Cells were fixed in 1% formaldehyde for 15 minutes at room temperature. Crosslinking reaction was extinguished by adding glycine to 125 mM. Cells were washed three times in PBS, 0.5% lgepal CA-630, 1 mM phenylmethanesulfonyl fluoride (PMSF). Cell pellets were snap frozen on dry ice and stored at -80°C.
ChIP-Seq was performed by Active Motif (Carlsbad, CA). Chromatin (30 μg) from vehicle (n = 1) or ACY-957 (n = 1) treated cells was immunoprecipitated (n = 1, each) with antibodies against GATA2 (20 μL, sc-9008, Santa Cruz Biotechnology), HDAC1 (20 μg, ab7028, Abcam), or HDAC2 (4 μg, ab12169, Abcam). ChIP DNA, as well as a control sample composed of equal amounts of input DNA from each treatment group, was processed into Illumina libraries using standard procedures, and libraries were sequenced on HiSeq 2000. The 50-nt sequence reads were mapped to the human genome, build Hg19, using the BWA algorithm with default settings. For the analysis, all data files were normalized to the same number of unique alignments without duplicate reads (24 million). Sequence tags were extended in silico (using Active Motif software) at their 3′-ends to a length of 150 bp. To identify the density of fragments (extended tags) along the genome, the genome was divided into 32-nt bins and the number of fragments in each bin was determined. The resulting histogram files (bigwig format) are presented in figures using the Santa Cruz Genome Browser. Visualizations were exported as an eps file and formatted using Adobe Illustrator. Regions of GATA2 enrichment (intervals) were determined using MACS peak calling software, which identifies enrichments in the ACY-957 or vehicle treated ChIP data file when compared to the input DNA data file (random background). To compare peak metrics between vehicle and ACY-957 treated samples, overlapping intervals are grouped into active regions, which are defined by the start coordinate of the most upstream interval and the end coordinate of the most downstream interval. In locations where only one sample has an interval, this interval defines the active region. […]

Where [3] appears, read: CS1 differentiation media, 1 μM.

On to `Nc1ccc(-c2cccs2)cc1NC(=O)c1ccc2nc(N3CCNCC3)ccc2c1` [ACY-957], for which the “erythroid differentiation by day 8” value in assay [1] (setting [3]) was “accumulated at the TFRC^posGYPA^mid stage”. Also, the “erythroid differentiation during the first 5 days” value in assay [1] (setting [3]) was “differentiated to the same extent as vehicle treated cells”. Further, the “cells in TFRC/GYPA gate (gate not named)” value is recorded as 61% in assay [1] (Donor 1, CS1, day 5, 1 μM, first gate listed); 30% in assay [1] (Donor 1, CS1, day 5, 1 μM, second gate listed); 62% in assay [1] (Donor 2, CS1, day 5, 1 μM, first gate listed); 37% in assay [1] (Donor 2, CS1, day 5, 1 μM, second gate listed); 65% in assay [1] (Donor 3, CS1, day 5, 1 μM, first gate listed); 32% in assay [1] (Donor 3, CS1, day 5, 1 μM, second gate listed). For the same compound, the “maximum increase in GATA2 binding peak height” value in assay [2] (-1.8 kb GATA2 regulatory region) is on record as 3 fold. Moreover, the “GATA2 binding at the other 5 regions of the β-like globin gene cluster” value in assay [2] (ChIP-Seq) is “not affected”. Further, the “increase in GATA2 binding at the HBD promoter region” value in assay [2] (ChIP-Seq) is recorded as 1.8 fold.

The values are drawn from article PMC4830539, “Chemical Inhibition of Histone Deacetylases 1 and 2 Induces Fetal Hemoglobin through Activation of GATA2” (PLoS ONE, 2016).
